Experimental data: patent US7749980B2, “Non-nucleotide compositions and method for treating pain” (Inspire Pharmaceuticals, Inc., priority 2003, dated 2010)

Tested on: mice
Experiment: acetic acid-induced abdominal constriction assay for visceral pain in mice
Assay type: in vivo
Conditions: for number of averaged abdominal constrictions during the observation time interval compared to saline control: 50 mg/kg i.p. in physiological saline, 10 minutes prior to i.p. 0.9% acetic acid, 10 minutes of observation starting 5 minutes after acetic acid, statistical difference versus saline control group; for pharmacological effect over saline vehicle control in reducing the abdominal constrictions induced by 0.9% acetic acid: similar studies, dose dependence
Text: The method employed is a modification of the abdominal constriction test described by Collier, et. al (Collier, et al., Br. J. Pharmacol. Chemother. 32: 295-310 (1968)). For the rest of the example, compound: 6-(phenylureido)purine-2′, 3′-(4-ethylcyclohexylspiroketyl)-5′-nicotinyl-ribofuranoside is named “Compound A” and {6-[6-(Cyclohexylmethyl-amino)-purin-9-yl]-2-isobutyl-tetrahydro-furo[3,4-d][1,3]dioxol-4-yl}-methanol is named “Compound B”.
Briefly, a group of eight mice is designated as the control group, and each of said mice in the group receives an intraperitoneal (i.p.) injection of physiological saline in a dose-volume: mouse-weight ratio of 5 mL/kg ten minutes prior to an i.p. injection of 0.9% acetic acid in physiological saline in a dose-volume: mouse-weight ratio of 10 mL/kg. Each of said mice in the control group is placed in its own observation chamber shortly after the acetic acid injection and is allowed to explore. Each testing period starts 5 minutes after the acetic acid injection into a mouse, and consists of 10 minutes of observation during which time the number of abdominal constrictions of the mouse are counted. Abdominal constriction is defined as a lengthwise stretching of the torso with concave arching of the back. An average number of total constrictions per mouse per observation time is calculated from mice in the control group, and this indicates a baseline level of pain response in the control group animals.
Compound A is administered i.p., at a dose of 50 mg/kg suspended in a volume of physiological saline (5 mL/kg), 10 minutes prior to the administration of acetic acid, as described for the control group above.
Compound B is administered i.p., at a dose of 50 mg/kg suspended in a volume of physiological saline (5 mL/kg), 10 minutes prior to the administration of acetic acid, as described for the control group above.

Molecule	number of averaged abdominal constrictions during the observation time interval compared to saline control	pharmacological effect over saline vehicle control in reducing the abdominal constrictions induced by 0.9% acetic acid
6-(phenylureido)purine-2′, 3′-(4-ethylcyclohexylspiroketyl)-5′-nicotinyl-ribofuranoside [Compound A]	lower	dose dependent pharmacological effect
CC(C)CC1OC2C(CO)OC(n3cnc4c(NCC5CCCCC5)ncnc43)C2O1 (stereo not shown) [Compound B, {6-[6-(Cyclohexylmethyl-amino)-purin-9-yl]-2-isobutyl-tetrahydro-furo[3,4-d][1,3]dioxol-4-yl}-methanol]	lower	dose dependent pharmacological effect
